Assay results from patent publication US12077503B2, “Substituted cyclic amides and their use as herbicides” (FMC CORPORATION, priority 2015, dated 2024).

Columns and labels:
Assay type in all cases: in vivo
[1] = system: giant foxtail (Setaria faberi); assay: Test G Post-Emergence Protocol; conditions: Setaria faberi, post-emergence, 312 h, read-out: Foxtail, Giant damage rating; for pest or weed control at 15.625 g/ha: 15.625 g ai/ha, evaluated after 13 days (100=total damage to plant; 0=no damage to plant); for pest or weed control at 62.5 g/ha: 62.5 g ai/ha; for pest or weed control at 62.5 g/ha / pest or weed control at 250 g/ha: evaluated after 13 days, 100=total damage to plant, 0=no damage to plant; for pest or weed control at 250 g/ha: 250 g ai/ha
In short: (§1)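 Seedlings grown 8 days in soil in a glasshouse (24/16 °C day/night, 14 h light, 65% humidity) were sprayed post-emergence with compound in acetone/water 50:50 plus 0.5% Tween 20 at 15.625, 62.5 or 250 g/ha. Damage was scored after 13 days on a 0–100 scale (100 = total damage).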

[2] = system: velvetleaf (Abutilon theophrasti); assay: Test G Post-Emergence Protocol; conditions: Abutilon theophrasti, post-emergence, 312 h, read-out: Velvetleaf damage rating; for pest or weed control at 15.625 g/ha: 15.625 g ai/ha, evaluated after 13 days (100=total damage to plant; 0=no damage to plant); for pest or weed control at 62.5 g/ha: 62.5 g ai/ha; for pest or weed control at 62.5 g/ha / pest or weed control at 250 g/ha: evaluated after 13 days, 100=total damage to plant, 0=no damage to plant; for pest or weed control at 250 g/ha: 250 g ai/ha
In short: as §1

corn (Zea mays) [3] = assay: Test G Post-Emergence Protocol; conditions: Zea mays, post-emergence, 312 h, read-out: Corn damage rating; for plant injury at 15.625 g/ha: 15.625 g ai/ha, evaluated after 13 days (100=total damage to plant; 0=no damage to plant); for plant injury at 62.5 g/ha: 62.5 g ai/ha; for plant injury at 62.5 g/ha / plant injury at 250 g/ha: evaluated after 13 days, 100=total damage to plant, 0=no damage to plant; for plant injury at 250 g/ha: 250 g ai/ha
In short: as §1

[4] = system: redroot pigweed (Amaranthus retroflexus); assay: Test G Post-Emergence Protocol; conditions: Amaranthus retroflexus, post-emergence, 312 h, read-out: Pigweed, Redroot damage rating; for pest or weed control at 15.625 g/ha: 15.625 g ai/ha, evaluated after 13 days (100=total damage to plant; 0=no damage to plant); for pest or weed control at 62.5 g/ha: 62.5 g ai/ha; for pest or weed control at 62.5 g/ha / pest or weed control at 250 g/ha: evaluated after 13 days, 100=total damage to plant, 0=no damage to plant; for pest or weed control at 250 g/ha: 250 g ai/ha
In short: as §1

[5] = system: ivy-leaved morning glory (Ipomoea hederacea); assay: Test G Post-Emergence Protocol; conditions: Ipomoea, post-emergence, 312 h, read-out: Morningglory, Ivy-leaved damage rating; for pest or weed control at 15.625 g/ha: 15.625 g ai/ha, evaluated after 13 days (100=total damage to plant; 0=no damage to plant); for pest or weed control at 62.5 g/ha: 62.5 g ai/ha; for pest or weed control at 62.5 g/ha / pest or weed control at 250 g/ha: evaluated after 13 days, 100=total damage to plant, 0=no damage to plant; for pest or weed control at 250 g/ha: 250 g ai/ha
In short: as §1

[6] = system: barnyardgrass (Echinochloa crus-galli); assay: Test G Post-Emergence Protocol; conditions: Echinochloa crus-galli, post-emergence, 312 h, read-out: Barnyardgrass damage rating; for pest or weed control at 15.625 g/ha: 15.625 g ai/ha, evaluated after 13 days (100=total damage to plant; 0=no damage to plant); for pest or weed control at 62.5 g/ha: 62.5 g ai/ha; for pest or weed control at 62.5 g/ha / pest or weed control at 250 g/ha: evaluated after 13 days, 100=total damage to plant, 0=no damage to plant; for pest or weed control at 250 g/ha: 250 g ai/ha
In short: as §1

[7] = system: giant foxtail (Setaria faberi); assay: Test G Pre-Emergence Protocol; conditions: Setaria faberi, pre-emergence, 312 h, evaluated after 13 days; for pest or weed control at 15.625 g/ha: 15.625 g ai/ha; for pest or weed control at 15.625 g/ha / pest or weed control at 250 g/ha: read-out: Foxtail, Giant damage rating (100=total damage to plant; 0=no damage to plant); for pest or weed control at 62.5 g/ha: 62.5 g ai/ha, 100=total damage to plant, 0=no damage to plant, read-out: Foxtail, Giant damage rating; for pest or weed control at 250 g/ha: 250 g ai/ha
In short: (§2)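 Pots of seeds in standard soil were grown for one day in a glasshouse (24/16 °C day/night, 14 h light, 65% humidity), then sprayed with compound in acetone/water 50:50 with 0.5% Tween 20 at 15.625, 62.5 or 250 g/ha. Damage was scored after 13 days on a 0 (none) to 100 (total) scale.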

[8] = system: velvetleaf (Abutilon theophrasti); assay: Test G Pre-Emergence Protocol; conditions: Abutilon theophrasti, pre-emergence, 312 h, evaluated after 13 days; for pest or weed control at 15.625 g/ha: 15.625 g ai/ha; for pest or weed control at 15.625 g/ha / pest or weed control at 250 g/ha: read-out: Velvetleaf damage rating (100=total damage to plant; 0=no damage to plant); for pest or weed control at 62.5 g/ha: 62.5 g ai/ha, 100=total damage to plant, 0=no damage to plant, read-out: Velvetleaf damage rating; for pest or weed control at 250 g/ha: 250 g ai/ha
In short: as §2

corn (Zea mays) [9] = assay: Test G Pre-Emergence Protocol; conditions: Zea mays, pre-emergence, 312 h, evaluated after 13 days; for plant injury at 15.625 g/ha: 15.625 g ai/ha; for plant injury at 15.625 g/ha / plant injury at 250 g/ha: read-out: Corn damage rating (100=total damage to plant; 0=no damage to plant); for plant injury at 62.5 g/ha: 62.5 g ai/ha, 100=total damage to plant, 0=no damage to plant, read-out: Corn damage rating; for plant injury at 250 g/ha: 250 g ai/ha
In short: as §2

[10] = system: redroot pigweed (Amaranthus retroflexus); assay: Test G Pre-Emergence Protocol; conditions: Amaranthus retroflexus, pre-emergence, 312 h, evaluated after 13 days; for pest or weed control at 15.625 g/ha: 15.625 g ai/ha; for pest or weed control at 15.625 g/ha / pest or weed control at 250 g/ha: read-out: Pigweed, Redroot damage rating (100=total damage to plant; 0=no damage to plant); for pest or weed control at 62.5 g/ha: 62.5 g ai/ha, 100=total damage to plant, 0=no damage to plant, read-out: Pigweed, Redroot damage rating; for pest or weed control at 250 g/ha: 250 g ai/ha
In short: as §2

[11] = system: ivy-leaved morning glory (Ipomoea hederacea); assay: Test G Pre-Emergence Protocol; conditions: Ipomoea, pre-emergence, 312 h, evaluated after 13 days; for pest or weed control at 15.625 g/ha: 15.625 g ai/ha; for pest or weed control at 15.625 g/ha / pest or weed control at 250 g/ha: read-out: Morningglory, Ivy-leaved damage rating (100=total damage to plant; 0=no damage to plant); for pest or weed control at 62.5 g/ha: 62.5 g ai/ha, 100=total damage to plant, 0=no damage to plant, read-out: Morningglory, Ivy-leaved damage rating; for pest or weed control at 250 g/ha: 250 g ai/ha
In short: as §2

[12] = system: barnyardgrass (Echinochloa crus-galli); assay: Test G Pre-Emergence Protocol; conditions: Echinochloa crus-galli, pre-emergence, 312 h, evaluated after 13 days; for pest or weed control at 15.625 g/ha: 15.625 g ai/ha; for pest or weed control at 15.625 g/ha / pest or weed control at 250 g/ha: read-out: Barnyardgrass damage rating (100=total damage to plant; 0=no damage to plant); for pest or weed control at 62.5 g/ha: 62.5 g ai/ha, 100=total damage to plant, 0=no damage to plant, read-out: Barnyardgrass damage rating; for pest or weed control at 250 g/ha: 250 g ai/ha
In short: as §2

| Structure (SMILES) | pest or weed control at 15.625 g/ha [1] [%] | pest or weed control at 62.5 g/ha [1] [%] | pest or weed control at 15.625 g/ha [2] [%] | pest or weed control at 62.5 g/ha [2] [%] | pest or weed control at 250 g/ha [2] [%] | plant injury at 15.625 g/ha (corn (Zea mays) [3]) [%] | plant injury at 62.5 g/ha (corn (Zea mays) [3]) [%] | plant injury at 250 g/ha (corn (Zea mays) [3]) [%] | pest or weed control at 15.625 g/ha [4] [%] | pest or weed control at 62.5 g/ha [4] [%] | pest or weed control at 250 g/ha [4] [%] | pest or weed control at 15.625 g/ha [5] [%] | pest or weed control at 62.5 g/ha [5] [%] | pest or weed control at 250 g/ha [5] [%] | pest or weed control at 15.625 g/ha [6] [%] | pest or weed control at 62.5 g/ha [6] [%] | pest or weed control at 250 g/ha [6] [%] | pest or weed control at 15.625 g/ha [7] [%] | pest or weed control at 62.5 g/ha [7] [%] | pest or weed control at 250 g/ha [7] [%] | other results |
| --- | --- | --- | --- | --- | --- | --- | --- | --- | --- | --- | --- | --- | --- | --- | --- | --- | --- | --- | --- | --- | --- |
| COc1c(C)cc(C2CN(C)C(=O)C2C(=O)Nc2cccc(F)c2F)cc1C (centres unmarked) [Compound 1707] | 80 | 80 | 0 | 20 | 30 | 60 | 70 | 80 | 0 | 0 | 0 | 40 | 40 | 70 | 70 | 70 | 80 | 80 | 90 | 90 | pest or weed control at 15.625 g/ha [8]: 10%; pest or weed control at 62.5 g/ha [8]: 10%; pest or weed control at 250 g/ha [8]: 60%; plant injury at 15.625 g/ha (corn (Zea mays) [9]): 20%; plant injury at 62.5 g/ha (corn (Zea mays) [9]): 80%; plant injury at 250 g/ha (corn (Zea mays) [9]): 80%; pest or weed control at 15.625 g/ha [10]: 20%; pest or weed control at 62.5 g/ha [10]: 20%; pest or weed control at 250 g/ha [10]: 40%; pest or weed control at 15.625 g/ha [11]: 0%; pest or weed control at 62.5 g/ha [11]: 10%; pest or weed control at 250 g/ha [11]: 30%; pest or weed control at 15.625 g/ha [12]: 70%; pest or weed control at 62.5 g/ha [12]: 80%; pest or weed control at 250 g/ha [12]: 90% |
| COc1c(F)cc(C2CN(C)C(=O)C2C(=O)Nc2cccc(F)c2F)cc1Cl (centres unmarked) [Compound 1709] | 70 | 80 | 20 | 10 | 50 | 30 | 60 | 80 | 20 | 10 | 30 | 10 | 50 | 70 | 30 | 70 | 80 | 70 | 80 | 90 | pest or weed control at 250 g/ha [1]: 80%; pest or weed control at 15.625 g/ha [8]: 0%; pest or weed control at 62.5 g/ha [8]: 20%; pest or weed control at 250 g/ha [8]: 30%; plant injury at 15.625 g/ha (corn (Zea mays) [9]): 0%; plant injury at 62.5 g/ha (corn (Zea mays) [9]): 70%; plant injury at 250 g/ha (corn (Zea mays) [9]): 90%; pest or weed control at 15.625 g/ha [10]: 0%; pest or weed control at 62.5 g/ha [10]: 20%; pest or weed control at 250 g/ha [10]: 50%; pest or weed control at 15.625 g/ha [11]: 0%; pest or weed control at 62.5 g/ha [11]: 10%; pest or weed control at 250 g/ha [11]: 20%; pest or weed control at 15.625 g/ha [12]: 60%; pest or weed control at 62.5 g/ha [12]: 70%; pest or weed control at 250 g/ha [12]: 80% |
| COc1cc(C2CN(C)C(=O)C2C(=O)Nc2cccc(F)c2F)cc(OC)c1F (centres unmarked) [Compound 1711] | 70 | 80 | 0 | 0 | 0 | 0 | 10 | 40 | 0 | 0 | 0 | 10 | 30 | 70 | 30 | 70 | 80 | 70 | 70 | 90 | pest or weed control at 250 g/ha [1]: 80%; pest or weed control at 15.625 g/ha [8]: 0%; pest or weed control at 62.5 g/ha [8]: 0%; pest or weed control at 250 g/ha [8]: 0%; plant injury at 15.625 g/ha (corn (Zea mays) [9]): 0%; plant injury at 62.5 g/ha (corn (Zea mays) [9]): 0%; plant injury at 250 g/ha (corn (Zea mays) [9]): 20%; pest or weed control at 15.625 g/ha [10]: 0%; pest or weed control at 62.5 g/ha [10]: 0%; pest or weed control at 250 g/ha [10]: 0%; pest or weed control at 15.625 g/ha [11]: 0%; pest or weed control at 62.5 g/ha [11]: 10%; pest or weed control at 250 g/ha [11]: 10%; pest or weed control at 15.625 g/ha [12]: 30%; pest or weed control at 62.5 g/ha [12]: 10%; pest or weed control at 250 g/ha [12]: 80% |
